≈ marks a conversion by molar mass, not a printed value.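 All cell lines were grown in 96-well plates and treated with compound for 48 hours. GI50 is the concentration that inhibits growth by half. TGI is the concentration that stops growth completely.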
Legend:
Assay in all cases: NCI-60 cell line screen, 48 h
OVCAR-4 ovarian = tested on: OVCAR-4 ovarian
MOLT-4 leukemia = tested on: MOLT-4 leukemia
MDA-MB-435 = tested on: MDA-MB-435
ACHN renal = tested on: ACHN renal
NCI/ADR-RES ovarian = tested on: NCI/ADR-RES ovarian
SK-MEL-28 melanoma = tested on: SK-MEL-28 melanoma
K-562 leukemia = tested on: K-562 leukemia
EKVX NSCLC = tested on: EKVX NSCLC
SF-268 CNS = tested on: SF-268 CNS
HT29 colon = tested on: HT29 colon
NCI-H522 lung = tested on: NCI-H522 lung
COLO 205 colon = tested on: COLO 205 colon
CAKI-1 renal = tested on: CAKI-1 renal
HOP-62 NSCLC = tested on: HOP-62 NSCLC
DU-145 prostate = tested on: DU-145 prostate

`c1ccc(C2=NN2c2ccccc2)cc1` was tested, and the TGI (OVCAR-4 ovarian) was over 100 µM, the TGI (MOLT-4 leukemia) was over 100 µM and the TGI (MDA-MB-435) was over 100 µM. It also gave a TGI (ACHN renal) of over 100 µM, a TGI (NCI/ADR-RES ovarian) of over 100 µM and a TGI (SK-MEL-28 melanoma) of over 100 µM. It also gave a TGI (K-562 leukemia) of over 100 µM, a TGI (EKVX NSCLC) of over 100 µM and a TGI (SF-268 CNS) of over 100 µM. For the same molecule, the TGI (HT29 colon) was over 100 µM, the TGI (NCI-H522 lung) was over 100 µM and the TGI (COLO 205 colon) was over 100 µM. For the same molecule, the TGI (CAKI-1 renal) was over 100 µM, the TGI (HOP-62 NSCLC) was over 100 µM and the TGI (DU-145 prostate) was over 100 µM.
`O=C=C=P(c1ccccc1)(c1ccccc1)c1ccccc1` gave a TGI (OVCAR-4 ovarian) of over 100 µM, a TGI (MOLT-4 leukemia) of over 100 µM and a TGI (ACHN renal) of over 100 µM. For the same molecule, the TGI (SK-MEL-28 melanoma) was over 100 µM, the TGI (K-562 leukemia) was over 100 µM and the TGI (EKVX NSCLC) was over 100 µM. For the same molecule, the TGI (SF-268 CNS) was over 100 µM, the TGI (COLO 205 colon) was 75.7 µM and the TGI (CAKI-1 renal) was over 100 µM.
Molecule `O=Cc1cn(CCCCCCCCn2cc(C=O)c3ccccc32)c2ccccc12` has a TGI (OVCAR-4 ovarian) of over 10 µM, a TGI (MOLT-4 leukemia) of over 10 µM and a TGI (MDA-MB-435) of over 10 µM. The TGI (ACHN renal) was over 10 µM, the TGI (NCI/ADR-RES ovarian) was over 10 µM and the TGI (SK-MEL-28 melanoma) was over 10 µM. The TGI (K-562 leukemia) was over 10 µM, the TGI (EKVX NSCLC) was over 10 µM and the TGI (SF-268 CNS) was over 10 µM. It also gave a TGI (HT29 colon) of over 10 µM, a TGI (NCI-H522 lung) of over 10 µM and a TGI (COLO 205 colon) of over 10 µM. It also gave a TGI (CAKI-1 renal) of over 10 µM, a TGI (HOP-62 NSCLC) of over 10 µM and a TGI (DU-145 prostate) of over 10 µM.
Molecule `ICC1CCCO1` (stereo not given) has a TGI (OVCAR-4 ovarian) of over 100 µM, a TGI (MOLT-4 leukemia) of over 100 µM and a TGI (ACHN renal) of over 100 µM. The TGI (SK-MEL-28 melanoma) was over 100 µM, the TGI (EKVX NSCLC) was over 100 µM and the TGI (SF-268 CNS) was over 100 µM. The TGI (HT29 colon) was over 100 µM, the TGI (COLO 205 colon) was over 100 µM and the TGI (CAKI-1 renal) was over 100 µM.
Molecule `CCOP(=O)(C/C=C/Cn1ncc(=O)[nH]c1=O)OCC` has a TGI (OVCAR-4 ovarian) of over 100 µM, a TGI (MOLT-4 leukemia) of over 100 µM and a TGI (MDA-MB-435) of over 100 µM. It also gave a TGI (ACHN renal) of over 100 µM, a TGI (NCI/ADR-RES ovarian) of over 100 µM and a TGI (SK-MEL-28 melanoma) of over 100 µM. It also gave a TGI (K-562 leukemia) of over 100 µM, a TGI (EKVX NSCLC) of over 100 µM and a TGI (SF-268 CNS) of over 100 µM. The TGI (HT29 colon) was over 100 µM, the TGI (NCI-H522 lung) was over 100 µM and the TGI (COLO 205 colon) was over 100 µM. The TGI (CAKI-1 renal) was over 100 µM, the TGI (HOP-62 NSCLC) was over 100 µM and the TGI (DU-145 prostate) was over 100 µM.
With `Cc1nc2nc(C)n(CCN3CCOCC3)c(=O)c2c(-c2cccc([N+](=O)[O-])c2)c1C(=O)CCCCCCCCCCN1CCC(c2ccccc2)(c2ccccc2)CC1` the GI50 (MDA-MB-435) was 1.9 µg/mL (≈ 2.34 µM), the TGI (MDA-MB-435) was 3.79 µg/mL and the GI50 (SK-MEL-28 melanoma) was 2.26 µg/mL (≈ 2.78 µM). The TGI (SK-MEL-28 melanoma) was 4.34 µg/mL, the GI50 (SF-268 CNS) was 2.26 µg/mL (≈ 2.78 µM) and the TGI (SF-268 CNS) was 4.26 µg/mL. It also gave a GI50 (HOP-62 NSCLC) of 2.07 µg/mL (≈ 2.55 µM), a TGI (HOP-62 NSCLC) of 4.06 µg/mL and a GI50 (DU-145 prostate) of 2.51 µg/mL (≈ 3.09 µM). For the same molecule, the TGI (DU-145 prostate) was 4.56 µg/mL.
`CC1(C)OCC(CO)(CO)CO1` was tested, and the TGI (OVCAR-4 ovarian) was over 100 µM, the TGI (MOLT-4 leukemia) was over 100 µM and the TGI (MDA-MB-435) was over 100 µM. It also gave a TGI (ACHN renal) of over 100 µM, a TGI (NCI/ADR-RES ovarian) of over 100 µM and a TGI (SK-MEL-28 melanoma) of over 100 µM. The TGI (K-562 leukemia) was over 100 µM, the TGI (SF-268 CNS) was over 100 µM and the TGI (HT29 colon) was over 100 µM. For the same molecule, the TGI (NCI-H522 lung) was over 100 µM, the TGI (COLO 205 colon) was over 100 µM and the TGI (DU-145 prostate) was over 100 µM.

From PubChem BioAssay (NCI)
